Reference: ChEMBL document CHEMBL4052831, “The Discovery of N-(1-Methyl-5-(trifluoromethyl)-1H-pyrazol-3-yl)-5-((6- ((methylamino)methyl)pyrimidin-4-yl)oxy)-1H-indole-1-carboxamide (Acrizanib), a VEGFR-2 Inhibitor Specifically Designed for Topical Ocular Delivery, as a Therapy for Neovascular Age-Related Macular Degeneration” (J Med Chem, 2018)
Each block holds one compound with its values, some of them ahead of it. Calls of active or inactive are those of the source. The calls are words filed in the database; no cut-off is given here.

What was measured:
[1] = Intrinsic clearance in rat liver microsomes at 1 uM after 5 to 30 mins by LC-MS/MS analysis; type: ADME, microsome; conditions: read-out: CLH
Rattus norvegicus [2] = assay: Antiangiogenic activity in Brown Norway rat laser-induced choroidal neovascularization model assessed as inhibition of neovascularization administered 1% suspension using 4 uL topical drop to both eyes every 3 hrs for 9 hrs by microscopic analysis
Mus musculus = assay: Antiangiogenic activity in C57BL/6 mouse laser-induced choroidal neovascularization model assessed as inhibition of neovascularization administered 1% suspension using 3.5 uL topical drop to both eyes every 3 hrs for 9 hrs by microscopic analysis
[3] = Cmax in plasma of Brown Norway rat administered 0.3% suspension using 4 uL topical drop to both eyes every 3 hrs for 9 hrs over 10 days and single drop to each eye on day 11 by LC-MS/MS analysis; type: ADME; conditions: topical or ocular, 4 uL of 0.3% suspension per eye
[4] = Cmax in retina of Brown Norway rat administered 0.3% suspension using 4 uL topical drop to both eyes every 3 hrs for 9 hrs over 10 days and single drop to each eye on day 11 by LC-MS/MS analysis; type: ADME; conditions: topical or ocular, 4 uL of 0.3% suspension per eye
[5] = Tmax in cynomolgus monkey plasma administered 1% suspension using 30 uL topical drop to both eyes as single dose by LC-MS/MS analysis; type: ADME, Macaca fascicularis; conditions: topical or ocular, 30 uL of 1% suspension per eye
[6] = AUC (0 to last) in retina of Brown Norway rat administered 0.3% suspension using 4 uL topical drop to both eyes every 3 hrs for 9 hrs over 10 days and single drop to each eye on day 11 by LC-MS/MS analysis; type: ADME; conditions: topical or ocular, 4 uL of 0.3% suspension per eye
[7] = Tmax in cynomolgus monkey plasma administered 1% solution using 30 uL topical drop to both eyes as single dose by LC-MS/MS analysis; type: ADME, Macaca fascicularis; conditions: topical or ocular, 30 uL of 1% solution per eye
Rattus norvegicus [8] = assay: Antiangiogenic activity in Brown Norway rat laser-induced choroidal neovascularization model assessed as inhibition of neovascularization administered 3% suspension using 4 uL topical drop to both eyes every 4.5 hrs for 9 hrs by microscopic analysis; type: functional
Rattus norvegicus [9] = assay: Antiangiogenic activity in Brown Norway rat laser-induced choroidal neovascularization model assessed as inhibition of neovascularization administered both eyes every 4.5 hrs for 9 hrs by microscopic analysis; type: functional
[10] = AUC (0 to last) in plasma of Brown Norway rat administered 0.3% suspension using 4 uL topical drop to both eyes as single dose by LC-MS/MS analysis; type: ADME; parameters: dose 4 uL, time 0 - last, route ophthalmic; conditions: topical or ocular, 4 uL of 0.3% suspension per eye
[11] = AUC (0 to last) in retina of Brown Norway rat administered 0.3% suspension using 4 uL topical drop to both eyes as single dose by LC-MS/MS analysis; type: ADME, tissue-based; parameters: dose 4 uL, time 0 - last, route ophthalmic; conditions: topical or ocular, 4 uL of 0.3% suspension per eye
[12] = AUC (0 to 6 hrs) in cynomolgus monkey plasma administered 1% solution using 30 uL topical drop to both eyes as single dose by LC-MS/MS analysis; type: ADME, Macaca fascicularis; parameters: time < 6 hr, dose 30 uL, route ophthalmic; conditions: topical or ocular, 30 uL of 1% solution per eye
[13] = Cmax in cynomolgus monkey plasma administered 1% solution using 30 uL topical drop to both eyes as single dose by LC-MS/MS analysis; type: ADME, Macaca fascicularis; parameters: dose 30 uL, route ophthalmic; conditions: topical or ocular, 30 uL of 1% solution per eye
[14] = Half life in cynomolgus monkey plasma administered 1% solution using 30 uL topical drop to both eyes as single dose by LC-MS/MS analysis; type: ADME, Macaca fascicularis; conditions: topical or ocular, 30 uL of 1% solution per eye
[15] = AUC (0 to last) in posterior eye cup of Brown Norway rat administered 0.3% suspension using 4 uL topical drop to both eyes as single dose by LC-MS/MS analysis; type: ADME; conditions: topical or ocular, 4 uL of 0.3% suspension per eye
Rattus norvegicus [16] = assay: Antiangiogenic activity in Brown Norway rat laser-induced choroidal neovascularization model assessed as inhibition of neovascularization administered topical drop to both eyes as qd by microscopic analysis; type: functional
[17] = Cmax in posterior eye cup of Brown Norway rat administered 0.3% suspension using 4 uL topical drop to both eyes as single dose by LC-MS/MS analysis; type: ADME; conditions: topical or ocular, 4 uL of 0.3% suspension per eye
[18] = Cmax in retina of Brown Norway rat administered 0.3% suspension using 4 uL topical drop to both eyes as single dose by LC-MS/MS analysis; type: ADME, tissue-based; parameters: dose 4 uL, route ophthalmic; conditions: topical or ocular, 4 uL of 0.3% suspension per eye
Rattus norvegicus [19] = assay: Antiangiogenic activity in Brown Norway rat laser-induced choroidal neovascularization model assessed as inhibition of neovascularization administered both eyes every 3 hrs for 9 hrs by microscopic analysis; type: functional
[20] = AUC (0 to last) in plasma of Brown Norway rat administered 0.3% suspension using 4 uL topical drop to both eyes every 3 hrs for 9 hrs over 10 days and single drop to each eye on day 11 by LC-MS/MS analysis; type: ADME; conditions: topical or ocular, 4 uL of 0.3% suspension per eye
[21] = Cmax in plasma of Brown Norway rat administered 0.3% suspension using 4 uL topical drop to both eyes as single dose by LC-MS/MS analysis; type: ADME; parameters: dose 4 uL, route ophthalmic; conditions: topical or ocular, 4 uL of 0.3% suspension per eye
[22] = AUC (0 to 6 hrs) in cynomolgus monkey plasma administered 1% suspension using 30 uL topical drop to both eyes as single dose by LC-MS/MS analysis; type: ADME, Macaca fascicularis; parameters: time < 6 hr, dose 30 uL, route ophthalmic; conditions: topical or ocular, 30 uL of 1% suspension per eye
[23] = Half life in cynomolgus monkey plasma administered 1% suspension using 30 uL topical drop to both eyes as single dose by LC-MS/MS analysis; type: ADME, Macaca fascicularis; conditions: topical or ocular, 30 uL of 1% suspension per eye
[24] = Cmax in posterior eye cup of Brown Norway rat administered 0.3% suspension using 4 uL topical drop to both eyes every 3 hrs for 9 hrs over 10 days and single drop to each eye on day 11 by LC-MS/MS analysis; type: ADME; conditions: topical or ocular, 4 uL of 0.3% suspension per eye
[25] = Cmax in cynomolgus monkey plasma administered 1% suspension using 30 uL topical drop to both eyes as single dose by LC-MS/MS analysis; type: ADME, Macaca fascicularis; parameters: dose 30 uL, route ophthalmic; conditions: topical or ocular, 30 uL of 1% suspension per eye
[26] = AUC (0 to last) in posterior eye cup of Brown Norway rat administered 0.3% suspension using 4 uL topical drop to both eyes every 3 hrs for 9 hrs over 10 days and single drop to each eye on day 11 by LC-MS/MS analysis; type: ADME; conditions: topical or ocular, 4 uL of 0.3% suspension per eye
[27] = target: Vascular endothelial growth factor receptor 2 (Homo sapiens, UniProt P35968)
Vascular endothelial growth factor receptor 2, sequence (P35968 whole entry): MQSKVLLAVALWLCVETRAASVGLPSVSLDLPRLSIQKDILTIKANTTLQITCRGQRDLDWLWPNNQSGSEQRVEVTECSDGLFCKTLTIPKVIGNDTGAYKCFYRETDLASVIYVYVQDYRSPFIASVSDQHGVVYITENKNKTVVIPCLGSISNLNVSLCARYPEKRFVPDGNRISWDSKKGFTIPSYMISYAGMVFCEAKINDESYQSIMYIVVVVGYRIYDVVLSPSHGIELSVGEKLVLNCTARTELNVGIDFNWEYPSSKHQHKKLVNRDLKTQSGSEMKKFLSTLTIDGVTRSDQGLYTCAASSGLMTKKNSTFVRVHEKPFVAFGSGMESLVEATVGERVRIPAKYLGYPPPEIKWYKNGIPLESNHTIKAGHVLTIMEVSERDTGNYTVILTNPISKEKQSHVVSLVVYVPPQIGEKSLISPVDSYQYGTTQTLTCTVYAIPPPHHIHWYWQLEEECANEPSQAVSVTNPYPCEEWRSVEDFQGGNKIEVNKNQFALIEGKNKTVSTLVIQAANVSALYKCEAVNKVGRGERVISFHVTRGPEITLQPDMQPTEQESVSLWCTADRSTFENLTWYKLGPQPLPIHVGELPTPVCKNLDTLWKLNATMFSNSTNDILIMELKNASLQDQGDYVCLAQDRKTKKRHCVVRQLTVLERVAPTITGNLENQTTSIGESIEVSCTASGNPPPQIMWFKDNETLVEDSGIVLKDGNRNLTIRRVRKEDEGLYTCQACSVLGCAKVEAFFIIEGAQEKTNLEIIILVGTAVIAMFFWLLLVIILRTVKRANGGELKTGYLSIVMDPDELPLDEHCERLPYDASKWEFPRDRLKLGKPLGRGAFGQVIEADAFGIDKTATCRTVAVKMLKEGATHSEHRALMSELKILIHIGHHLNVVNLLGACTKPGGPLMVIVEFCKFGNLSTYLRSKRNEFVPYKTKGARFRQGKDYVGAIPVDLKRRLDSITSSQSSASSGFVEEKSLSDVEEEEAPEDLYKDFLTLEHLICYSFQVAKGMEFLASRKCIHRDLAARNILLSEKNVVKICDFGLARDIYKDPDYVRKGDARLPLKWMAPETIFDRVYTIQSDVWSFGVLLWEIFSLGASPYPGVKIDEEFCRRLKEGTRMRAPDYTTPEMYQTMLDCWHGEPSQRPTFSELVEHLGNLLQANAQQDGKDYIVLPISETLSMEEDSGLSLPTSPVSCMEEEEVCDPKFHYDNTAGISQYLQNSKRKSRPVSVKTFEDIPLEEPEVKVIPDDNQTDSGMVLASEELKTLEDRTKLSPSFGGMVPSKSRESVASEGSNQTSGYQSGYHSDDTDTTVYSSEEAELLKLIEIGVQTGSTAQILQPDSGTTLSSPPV
Description: Inhibition of KDR (unknown origin) expressed in mouse Ba/F3 cells

Compound: CNCc1cc(Oc2ccc3c(ccn3C(=O)Nc3cccc(C(F)(F)F)c3)c2)ncn1
- microsomal CLint at 1 µM [1]: 43 µL/min/mg

Compound: CC(=O)N1Cc2ncnc(Oc3ccc4c(ccn4C(=O)Nc4cc(C5CC5)on4)c3)c2C1
- inhibition (Rattus norvegicus [2]): inactive

Compound: O=C(Nc1cc(C2CC2)on1)n1ccc2cc(Oc3cc(CO)ncn3)ccc21
- inhibition (Mus musculus): inactive

Compound: Nc1nccc(Oc2ccc3c(C(=O)Nc4cccc(C(F)(F)F)c4)cccc3c2)n1
- inhibition (Rattus norvegicus [2]): inactive
- IC50 [27]: 1.7 nM

Compound: CC(C)(CO)c1cc(NC(=O)n2ccc3cc(Oc4ncnc5c4CNC5)ccc32)no1
- inhibition (Mus musculus): inactive

Continued, in another order:

- microsomal CLint at 1 µM [1]: 52.3 µL/min/mg
Compound: CNCc1cc(Oc2ccc3c(ccn3C(=O)Nc3cc(C(C)C)[nH]n3)c2)ncn1

- Cmax [3]: 32.1 nM
- Cmax [4]: 1910 nM
- Tmax [5]: 1.67 h
- AUC(0-t) [6]: 14.3 µM·h
- Tmax [7]: 0.67 h
- AUC(0-t) [10]: 0.0343 µM·h
- AUC(0-t) [11]: 4.63 µM·h
- AUC(0-t) at 6 h [12]: 0.0644 µM·h
- Cmax [13]: 26.9 nM
- half-life [14]: 1.61 h
- AUC(0-t) [15]: 52 µM·h
- microsomal CLint at 1 µM [1]: 156 µL/min/mg
- Cmax [17]: 5690 nM
- Cmax [18]: 683 nM
- AUC(0-t) [20]: 0.0244 µM·h
- Cmax [21]: 36.6 nM
- AUC(0-t) at 6 h [22]: 0.0227 µM·h
- half-life [23]: 4.38 h
- Cmax [24]: 31800 nM
- Cmax [25]: 5.38 nM
- AUC(0-t) [26]: 515 µM·h
Compound: CNCc1cc(Oc2ccc3c(ccn3C(=O)Nc3cc(C(F)(F)F)n(C)n3)c2)ncn1
- inhibition (INH) (Rattus norvegicus [8]): 94%
- ED50 (Rattus norvegicus [9]): 1%
- ED90 (Rattus norvegicus [9]): 2.6%
- ED50 (Rattus norvegicus [16]): 1.4%
- ED50 (Rattus norvegicus [19]): 0.5%
- ED90 (Rattus norvegicus [19]): 1.2%

- microsomal CLint at 1 µM [1]: 91 µL/min/mg
Compound: CNCc1cc(Oc2ccc3c(ccn3C(=O)Nc3cc(C4(C)CC4)on3)c2)ncn1
